Test results from patent US8383647B2, “Quinoline derivative” (Takeda Pharmaceutical Company Limited, priority 2009, dated 2013).
Counter-ions that a name gives are not always drawn.

What was measured:
human SLC-1 = human SLC-1 (Homo sapiens, UniProt Q99705); experiment: MCH receptor antagonistic activity (inhibitory activity, Experimental Example 1); format: biochemical
rat SLC-1 = rat SLC-1 (Rattus norvegicus, UniProt P97639); experiment: as above; format: biochemical
Chain of rat SLC-1 (P97639 whole entry): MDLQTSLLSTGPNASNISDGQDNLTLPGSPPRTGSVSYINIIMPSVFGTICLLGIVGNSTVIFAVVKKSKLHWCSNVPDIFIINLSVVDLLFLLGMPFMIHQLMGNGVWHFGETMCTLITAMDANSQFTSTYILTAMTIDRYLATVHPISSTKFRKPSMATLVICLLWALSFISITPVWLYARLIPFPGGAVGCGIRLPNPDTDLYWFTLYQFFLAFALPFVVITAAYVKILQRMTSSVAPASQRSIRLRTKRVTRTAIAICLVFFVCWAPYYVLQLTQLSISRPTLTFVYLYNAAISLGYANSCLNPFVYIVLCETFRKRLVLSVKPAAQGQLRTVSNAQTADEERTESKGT

Chain of human SLC-1 (Q99705 whole entry): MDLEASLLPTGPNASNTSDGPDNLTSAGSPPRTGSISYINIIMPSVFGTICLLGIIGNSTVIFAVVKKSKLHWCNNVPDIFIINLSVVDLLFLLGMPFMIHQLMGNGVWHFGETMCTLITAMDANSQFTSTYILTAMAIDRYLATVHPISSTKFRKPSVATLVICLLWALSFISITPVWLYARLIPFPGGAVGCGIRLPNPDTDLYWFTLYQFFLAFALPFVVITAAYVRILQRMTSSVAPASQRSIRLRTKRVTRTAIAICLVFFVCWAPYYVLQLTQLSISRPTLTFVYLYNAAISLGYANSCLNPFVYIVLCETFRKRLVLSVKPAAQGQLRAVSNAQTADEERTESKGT

| IC50 (human SLC-1) [nM] | IC50 (rat SLC-1) [nM] | melting point [°C] | SMILES |
| --- | --- | --- | --- |
| 2.2 | 2.7 | 129 | Cc1c(NC(=O)c2ccc(OCC3CCOC3)cc2)ccc2cc(CNCC(C)(C)C)cnc12 (stereo not drawn) [Example 62, N-(3-{[(2,2-dimethylpropyl)amino]methyl}-8-methylquinolin-7-yl)-4-(tetrahydrofuran-3-ylmethoxy)benzamide] |
| 6.5 | 9.5 | 159 to 161 | Cc1c(NC(=O)c2ccc(OC[C@@H]3CCCO3)cc2)ccc2cc(CN[C@H]3CC[C@@](C)(O)CC3)cnc12 [Example 52, N-(3-{[(cis-4-hydroxy-4-methylcyclohexyl)amino]methyl}-8-methylquinolin-7-yl)-4-[(2S)-tetrahydrofuran-2-ylmethoxy]benzamide] |
| 4.5 | 6.5 | 142 to 143 | Cc1c(NC(=O)c2ccc(OC[C@@H]3CCCO3)cc2)ccc2cc(CN[C@@H]3CCCC[C@H]3O)cnc12 [Example 46, N-[3-({[(1R,2R)-2-hydroxycyclohexyl]amino}methyl)-8-methylquinolin-7-yl]-4-[(2S)-tetrahydrofuran-2-ylmethoxy]benzamide] |
| 1.8 | 2 | 114 to 116 | Cc1c(NC(=O)c2ccc(OC[C@@H]3CCCO3)cc2)ccc2cc(CNCC(C)(C)C)cnc12 [Example 39, N-(3-{[(2,2-dimethylpropyl)amino]methyl}-8-methylquinolin-7-yl)-4-[(2S)-tetrahydrofuran-2-ylmethoxy]benzamide] |
| 3.4 | 3.5 | 110 to 111 | Cc1c(NC(=O)c2ccc(OC[C@H]3CCCO3)cc2)ccc2cc(CNCC(C)(C)C)cnc12 [Example 25, N-(3-{[(2,2-dimethylpropyl)amino]methyl}-8-methylquinolin-7-yl)-4-[(2R)-tetrahydrofuran-2-ylmethoxy]benzamide] |
| 7.8 | 11 | 167 to 168 | Cc1c(NC(=O)c2ccc(OC[C@@H]3CCCO3)cc2F)ccc2cc(CNCC(C)(C)O)cnc12 [Example 67, 2-fluoro-N-(3-{[(2-hydroxy-2-methylpropyl)amino]methyl}-8-methylquinolin-7-yl)-4-[(2S)-tetrahydrofuran-2-ylmethoxy]benzamide] |
| 6.1 | 7.1 | 171 to 172 | Cc1c(NC(=O)c2ccc(OC[C@@H]3CCCO3)cc2F)ccc2cc(CN[C@H]3CC[C@](C)(O)CC3)cnc12 [Example 69, 2-fluoro-N-(3-{[(trans-4-hydroxy-4-methylcyclohexyl)amino]methyl}-8-methylquinolin-7-yl)-4-[(2S)-tetrahydrofuran-2-ylmethoxy]benzamide] |
| 6.4 | 9.1 | 122 to 123 | CC[C@H](C)NCc1cnc2c(C)c(NC(=O)c3ccc(OC[C@@H]4CCCO4)cc3)ccc2c1 [Example 56, N-[8-methyl-3-({[(1S)-1-methylpropyl]amino}methyl)quinolin-7-yl]-4-[(2S)-tetrahydrofuran-2-ylmethoxy]benzamide] |
| 7.7 | 13 | 182 to 183 | Cc1c(NC(=O)c2ccc(OC[C@H]3CCCO3)cc2)ccc2cc(CN[C@H]3CC[C@H](O)CC3)cnc12 [Example 40, N-(3-{[(trans-4-hydroxycyclohexyl)amino]methyl}-8-methylquinolin-7-yl)-4-[(2R)-tetrahydrofuran-2-ylmethoxy]benzamide] |
| 5 | 8 | 120 to 121 | CCCNCc1cnc2c(C)c(NC(=O)c3ccc(OC[C@@H]4CCCO4)cc3F)ccc2c1 [Example 71, 2-fluoro-N-{8-methyl-3-[(propylamino)methyl]quinolin-7-yl}-4-[(2S)-tetrahydrofuran-2-ylmethoxy]benzamide] |
| 2.8 | 3.2 | 148 to 149 | Cc1c(NC(=O)c2ccc(OCC3CCOC3)cc2)ccc2cc(CNC3CCCC3)cnc12 (stereo not drawn) [Example 16, N-{3-[(cyclopentylamino)methyl]-8-methylquinolin-7-yl}-4-(tetrahydrofuran-3-ylmethoxy)benzamide] |
| 2.7 | 3.2 | 133 to 134 | Cc1c(NC(=O)c2ccc(OC[C@@H]3CCCO3)cc2F)ccc2cc(CNCC(C)C)cnc12 [Example 70, 2-fluoro-N-(8-methyl-3-{[(2-methylpropyl)amino]methyl}quinolin-7-yl)-4-[(2S)-tetrahydrofuran-2-ylmethoxy]benzamide] |
| 3.7 | 4.5 | 122 to 123 | Cc1c(NC(=O)c2ccc(OCC3CCOC3)cc2)ccc2cc(CNCC3CCOCC3)cnc12 (stereo not drawn) [Example 63, N-(8-methyl-3-{[(tetrahydro-2H-pyran-4-ylmethyl)amino]methyl}quinolin-7-yl)-4-(tetrahydrofuran-3-ylmethoxy)benzamide] |
| 5.5 | 6.5 | 117 to 119 | Cc1c(NC(=O)c2ccc(OC[C@@H]3CCCO3)cc2)ccc2cc(CNCC3(C)COC3)cnc12 [Example 34, N-[8-methyl-3-({[(3-methyloxetan-3-yl)methyl]amino}methyl)quinolin-7-yl]-4-[(2S)-tetrahydrofuran-2-ylmethoxy]benzamide] |
| 6.8 | 11 | 140 to 141 | Cc1c(NC(=O)c2ccc(OC[C@@H]3CCCO3)cc2)ccc2cc(CN[C@H](C)C(C)(C)C)cnc12 [Example 58, N-[8-methyl-3-({[(1R)-1,2,2-trimethylpropyl]amino}methyl)quinolin-7-yl]-4-[(2S)-tetrahydrofuran-2-ylmethoxy]benzamide] |
| 5.5 | 6.1 | 113 to 115 | CCC(CC)NCc1cnc2c(C)c(NC(=O)c3ccc(OC[C@@H]4CCCO4)cc3)ccc2c1 [Example 54, N-(3-{[(1-ethylpropyl)amino]methyl}-8-methylquinolin-7-yl)-4-[(2S)-tetrahydrofuran-2-ylmethoxy]benzamide] |
| 1.7 | 3 | 152 to 153 | Cc1c(NC(=O)c2ccc(OC[C@@H]3CCCO3)cc2)ccc2cc(CNC3CCCC3)cnc12 [Example 36, N-{3-[(cyclopentylamino)methyl]-8-methylquinolin-7-yl}-4-[(2S)-tetrahydrofuran-2-ylmethoxy]benzamide] |
| 1.5 | 1.7 | 142 to 143 | Cc1c(NC(=O)c2ccc(OC[C@@H]3CCCO3)cc2)ccc2cc(CNCC(C)C)cnc12 [Example 38, N-(8-methyl-3-{[(2-methylpropyl)amino]methyl}quinolin-7-yl)-4-[(2S)-tetrahydrofuran-2-ylmethoxy]benzamide] |
| 6.3 | 7.8 | 92 to 94 | Cc1c(NC(=O)c2ccc(OC[C@@H]3CCCO3)cc2)ccc2cc(CNC[C@H]3CCCO3)cnc12 [Example 27, N-[8-methyl-3-({[(2R)-tetrahydrofuran-2-ylmethyl]amino}methyl)quinolin-7-yl]-4-[(2S)-tetrahydrofuran-2-ylmethoxy]benzamide] |
| 1.5 | 1.6 |  | Cc1c(NC(=O)c2ccc(OC[C@@H]3CCCO3)cc2)ccc2cc(CNCC3(O)CCCCC3)cnc12 [Example 41, N-[3-({[(1-hydroxycyclohexyl)methyl]amino}methyl)-8-methylquinolin-7-yl]-4-[(2S)-tetrahydrofuran-2-ylmethoxy]benzamide dihydrochloride] |
| 6 | 6.4 | 92 to 94 | Cc1c(NC(=O)c2ccc(OC[C@@H]3CCCO3)cc2)ccc2cc(CNCC3CCOCC3)cnc12 [Example 32, N-(8-methyl-3-{[(tetrahydro-2H-pyran-4-ylmethyl)amino]methyl}quinolin-7-yl)-4-[(2S)-tetrahydrofuran-2-ylmethoxy]benzamide] |
| 4.5 | 4.3 | 169 to 174 | Cc1c(NC(=O)c2ccc(OC[C@@H]3CCCO3)cc2)ccc2cc(CN3CCC(C)(O)CC3)cnc12 [Example 72, N-{3-[(4-hydroxy-4-methylpiperidin-1-yl)methyl]-8-methylquinolin-7-yl}-4-[(2S)-tetrahydrofuran-2-ylmethoxy]benzamide] |
| 9.8 | 17 | 142 to 144 | Cc1c(NC(=O)c2ccc(OC[C@@H]3CCCO3)cc2)ccc2cc(CNC3CCC3)cnc12 [Example 57, N-{3-[(cyclobutylamino)methyl]-8-methylquinolin-7-yl}-4-[(2S)-tetrahydrofuran-2-ylmethoxy]benzamide] |
| 3.1 | 2.8 | 134 to 135 | Cc1c(NC(=O)c2ccc(OC[C@@H]3CCCO3)cc2F)ccc2cc(CNCC(C)(C)C)cnc12 [Example 68, N-(3-{[(2,2-dimethylpropyl)amino]methyl}-8-methylquinolin-7-yl)-2-fluoro-4-[(2S)-tetrahydrofuran-2-ylmethoxy]benzamide] |
| 4.8 | 7.2 | 111 to 113 | Cc1c(NC(=O)c2ccc(OC[C@@H]3CCCO3)cc2)ccc2cc(CNCCOC(C)C)cnc12 [Example 49, N-[8-methyl-3-({[2-(1-methylethoxy)ethyl]amino}methyl)quinolin-7-yl]-4-[(2S)-tetrahydrofuran-2-ylmethoxy]benzamide] |
| 2.2 | 2.1 |  | Cc1c(NC(=O)c2ccc(OCC3CCOC3)cc2)ccc2cc(CNCC(C)C)cnc12 (single isomer, unassigned) [Example 61, N-(8-methyl-3-{[(2-methylpropyl)amino]methyl}quinolin-7-yl)-4-(tetrahydrofuran-3-ylmethoxy)benzamide] |
| 4.1 | 5.3 |  | Cc1c(NC(=O)c2ccc(OC[C@H]3CCCO3)cc2)ccc2cc(CN[C@H]3CC[C@](C)(O)CC3)cnc12 [Example 51, N-(3-{[(trans-4-hydroxy-4-methylcyclohexyl)amino]methyl}-8-methylquinolin-7-yl)-4-[(2R)-tetrahydrofuran-2-ylmethoxy]benzamide] |
